Results from publication PMC6691788, “Design and synthesis of phthalazine-based compounds as potent anticancer agents with potential antiangiogenic activity via VEGFR-2 inhibition” (Journal of Enzyme Inhibition and Medicinal Chemistry, 2019).
Read-outs that look alike come from different tables or passages of the source.

Legend:
HL-60(TB) = assay: NCI 60 cell panel SRB screen; type: cell-based; details: Homo sapiens; for GI50 / IC (TGI) / CC50: 5 log dose; for CC50: 48 h, read-out: LC50 (the source's name); for activity at 10 µM: single dose 10 μM, read-out: percent cell growth promotion
K-562 = assay: NCI 60 cell panel SRB screen; type: cell-based; details: Homo sapiens, K562; for GI50 / IC (TGI) / CC50: K-562, 5 log dose; for CC50: 48 h, read-out: LC50 (the source's name); for activity at 10 µM: K-562, single dose 10 μM, read-out: percent cell growth promotion
MOLT-4 = assay: NCI 60 cell panel SRB screen; type: cell-based; details: Homo sapiens; for GI50 / IC (TGI) / CC50: MOLT-4, 5 log dose; for CC50: 48 h, read-out: LC50 (the source's name); for activity at 10 µM: MOLT-4, single dose 10 μM, read-out: percent cell growth promotion
NCI-H522 = assay: NCI 60 cell panel SRB screen; type: cell-based; details: Homo sapiens; for GI50 / IC (TGI) / CC50: NCI-H522, 5 log dose; for CC50: 48 h, read-out: LC50 (the source's name); for activity at 10 µM: NCI-H522, single dose 10 μM, read-out: percent cell growth promotion
HT29 = assay: NCI 60 cell panel SRB screen; type: cell-based; details: Homo sapiens, HT-29; for GI50 / IC (TGI) / CC50: HT29, 5 log dose; for CC50: 48 h, read-out: LC50 (the source's name); for activity at 10 µM: HT29, single dose 10 μM, read-out: percent cell growth promotion
MDA-MB-435 = assay: NCI 60 cell panel SRB screen; type: cell-based; details: Homo sapiens; for GI50: MDA-MB-435; for IC (TGI): MDA-MB-435, read-out: TGI; for activity at 10 µM: MDA-MB-435, read-out: percent cell growth promotion; for CC50: MDA-MB-435, 5 log dose, 48 h, read-out: LC50 (the source's name)
UACC-257 = assay: NCI 60 cell panel SRB screen; type: cell-based; details: Homo sapiens; for GI50: UACC-257; for IC (TGI): UACC-257, read-out: TGI; for activity at 10 µM: UACC-257, read-out: percent cell growth promotion; for CC50: UACC-257, 5 log dose, 48 h, read-out: LC50 (the source's name)
IGROV1 = assay: NCI 60 cell panel SRB screen; type: cell-based; details: Homo sapiens, IGROV-1; for GI50 / IC (TGI) / CC50: IGROV1, 5 log dose; for CC50: 48 h, read-out: LC50 (the source's name); for activity at 10 µM: IGROV1, single dose 10 μM, read-out: percent cell growth promotion
OVCAR-3 = assay: NCI 60 cell panel SRB screen; type: cell-based; details: Homo sapiens; for GI50 / IC (TGI) / CC50: OVCAR-3, 5 log dose; for CC50: 48 h, read-out: LC50 (the source's name); for activity at 10 µM: OVCAR-3, single dose 10 μM, read-out: percent cell growth promotion
CAKI-1 = assay: NCI 60 cell panel SRB screen; type: cell-based, human; details: for TGI / GI50 / CC50: CAKI-1, 5 log dose; for GI50 / CC50 / activity at 10 µM: Homo sapiens; for CC50: 48 h, read-out: LC50 (the source's name); for activity at 10 µM: CAKI-1, single dose 10 μM, read-out: percent cell growth promotion
DU-145 = assay: NCI 60 cell panel SRB screen; type: cell-based; details: Homo sapiens; for GI50 / IC (TGI) / CC50: DU-145, 5 log dose; for CC50: 48 h, read-out: LC50 (the source's name); for activity at 10 µM: DU-145, single dose 10 μM, read-out: percent cell growth promotion
MCF7 = assay: NCI 60 cell panel SRB screen; type: cell-based; details: Homo sapiens; for IC (TGI): MCF7, read-out: TGI; for activity at 10 µM: MCF7, read-out: percent cell growth promotion
MDA-MB 231/ATCC = assay: NCI 60 cell panel SRB screen; type: cell-based; details: Homo sapiens; for GI50 / CC50: MDA-MB-231; for IC (TGI): MDA-MB-231, read-out: TGI; for activity at 10 µM: MDA-MB-231, read-out: percent cell growth promotion; for CC50: MDA-MDA 231/ATCC, 5 log dose, 48 h, read-out: LC50 (the source's name)
BT-549 = assay: NCI 60 cell panel SRB screen; type: cell-based; details: Homo sapiens; for GI50: BT-549; for IC (TGI): BT-549, read-out: TGI; for activity at 10 µM: BT-549, read-out: percent cell growth promotion; for CC50: BT-549, 5 log dose, 48 h, read-out: LC50 (the source's name)
T-47D = assay: NCI 60 cell panel SRB screen; type: cell-based; details: Homo sapiens, T47D; for IC (TGI): read-out: TGI; for activity at 10 µM: read-out: percent cell growth promotion; for CC50: T-47D, 5 log dose, 48 h, read-out: LC50 (the source's name)
VEGFR-2 tyrosine kinase = target: T1, VEGFR-2 tyrosine kinase (Homo sapiens, UniProt P35968); assay: In vitro VEGFR-2 tyrosine kinase assay (BPS Bioscience); type: biochemical; details: read-out: VEGFR-2 % inhibition; 10 μM concentration
T1 construct: purchased BPS Bioscience 40301
Outline: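 Single-point screen at 10 µM: recombinant VEGFR with poly(Glu,Tyr) 0.2 mg/ml, 10 μM ATP, Tris pH 7.4, MgCl2, BSA, 1% DMSO, 40 min at 30 °C; residual ATP read by Kinase-Glo Plus luminescence.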

T1 sequence (P35968 20-1356): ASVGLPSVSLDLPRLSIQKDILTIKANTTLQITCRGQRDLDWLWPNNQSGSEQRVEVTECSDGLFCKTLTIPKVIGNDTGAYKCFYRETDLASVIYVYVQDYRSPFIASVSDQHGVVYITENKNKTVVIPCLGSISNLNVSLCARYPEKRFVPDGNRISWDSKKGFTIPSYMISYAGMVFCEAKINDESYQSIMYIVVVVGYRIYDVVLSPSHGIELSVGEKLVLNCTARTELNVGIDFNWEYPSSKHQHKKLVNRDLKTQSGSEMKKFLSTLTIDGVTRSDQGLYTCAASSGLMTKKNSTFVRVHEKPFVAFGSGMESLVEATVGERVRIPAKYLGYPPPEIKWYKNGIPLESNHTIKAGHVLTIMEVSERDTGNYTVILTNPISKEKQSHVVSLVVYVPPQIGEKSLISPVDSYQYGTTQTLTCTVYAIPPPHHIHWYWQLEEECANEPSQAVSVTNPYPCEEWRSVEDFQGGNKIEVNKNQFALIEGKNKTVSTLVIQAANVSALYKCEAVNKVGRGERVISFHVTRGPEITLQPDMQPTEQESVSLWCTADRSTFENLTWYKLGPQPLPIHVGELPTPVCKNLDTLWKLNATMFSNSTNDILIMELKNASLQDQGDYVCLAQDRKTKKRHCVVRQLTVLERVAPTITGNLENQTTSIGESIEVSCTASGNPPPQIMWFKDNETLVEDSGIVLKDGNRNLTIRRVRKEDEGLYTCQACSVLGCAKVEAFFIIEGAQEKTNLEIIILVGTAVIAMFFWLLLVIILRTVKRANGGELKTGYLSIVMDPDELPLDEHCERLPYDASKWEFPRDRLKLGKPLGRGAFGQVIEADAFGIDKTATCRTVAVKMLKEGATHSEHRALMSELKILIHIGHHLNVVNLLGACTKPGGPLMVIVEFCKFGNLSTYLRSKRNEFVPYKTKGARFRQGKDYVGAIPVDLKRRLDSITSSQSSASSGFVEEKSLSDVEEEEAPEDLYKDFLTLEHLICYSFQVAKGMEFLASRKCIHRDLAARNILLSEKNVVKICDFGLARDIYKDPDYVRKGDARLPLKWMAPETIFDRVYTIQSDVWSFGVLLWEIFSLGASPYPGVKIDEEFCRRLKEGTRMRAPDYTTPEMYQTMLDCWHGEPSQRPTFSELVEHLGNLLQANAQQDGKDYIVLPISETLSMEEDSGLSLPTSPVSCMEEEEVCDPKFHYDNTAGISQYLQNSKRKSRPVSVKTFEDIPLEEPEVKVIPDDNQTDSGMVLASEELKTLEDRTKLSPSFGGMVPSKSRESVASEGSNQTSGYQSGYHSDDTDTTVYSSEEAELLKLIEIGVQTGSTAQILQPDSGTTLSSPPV

O=C(Nc1ccc(Cl)cc1)Nc1ccc(Nc2nncc3ccccc23)cc1 [Compound 6b, 1–(4-Chlorophenyl)-3–(4-(phthalazin-1-ylamino)phenyl)urea] gave a GI50 (HL-60(TB)) of 2.42 µM, an IC (TGI) (HL-60(TB)) of 7 µM and a CC50 (HL-60(TB)) greater than 100 µM. It also gave an activity at 10 µM (HL-60(TB)) of 18.1%, a GI50 (K-562) of 1.68 µM and an IC (TGI) (K-562) of 26.4 µM. For the same compound, the CC50 (K-562) was greater than 100 µM, the activity at 10 µM (K-562) was 9.49% and the GI50 (MOLT-4) was 2.09 µM. The IC (TGI) (MOLT-4) was 6.36 µM, the CC50 (MOLT-4) was greater than 100 µM and the activity at 10 µM (MOLT-4) was -1.61%. It also gave a GI50 (NCI-H522) of 1.32 µM, an IC (TGI) (NCI-H522) of 8.81 µM and a CC50 (NCI-H522) of 43.2 µM. The activity at 10 µM (NCI-H522) was 11.9%, the GI50 (HT29) was 2.65 µM and the IC (TGI) (HT29) was 14.1 µM. It also gave a CC50 (HT29) of 60 µM, an activity at 10 µM (HT29) of 32.4% and a GI50 (MDA-MB-435) of 2.14 µM. The IC (TGI) (MDA-MB-435) was 9.42 µM, the activity at 10 µM (MDA-MB-435) was 13.7% and the CC50 (MDA-MB-435) was 30.9 µM. For the same compound, the GI50 (UACC-257) was 3.41 µM, the IC (TGI) (UACC-257) was 10.8 µM and the activity at 10 µM (UACC-257) was 15.3%. For the same compound, the CC50 (UACC-257) was 33.5 µM, the GI50 (IGROV1) was 2.52 µM and the IC (TGI) (IGROV1) was 30.7 µM. For the same compound, the CC50 (IGROV1) was greater than 100 µM, the activity at 10 µM (IGROV1) was 39.7% and the GI50 (OVCAR-3) was 2.57 µM. It also gave an IC (TGI) (OVCAR-3) of 10.3 µM, a CC50 (OVCAR-3) of 70 µM and an activity at 10 µM (OVCAR-3) of 17.6%. For the same compound, the TGI (CAKI-1) was 12.5 µM, the GI50 (CAKI-1) was 1.97 µM and the CC50 (CAKI-1) was 88 µM. It also gave an activity at 10 µM (CAKI-1) of 20.6%, a GI50 (DU-145) of 3.17 µM and an IC (TGI) (DU-145) of 26.9 µM. It also gave a CC50 (DU-145) greater than 100 µM, an activity at 10 µM (DU-145) of 33.7% and a GI50 (MCF7; MCF7) of 1.43 µM. It also gave an IC (TGI) (MCF7) of 8.32 µM, an activity at 10 µM (MCF7) of 5.46% and a CC50 (MCF7; MCF7, 5 log dose, 48 h, read-out: LC50 (the source's name)) of 64.1 µM. The GI50 (MDA-MB 231/ATCC) was 3.4 µM, the IC (TGI) (MDA-MB 231/ATCC) was 15.9 µM and the activity at 10 µM (MDA-MB 231/ATCC) was 36.6%. For the same compound, the CC50 (MDA-MB 231/ATCC) was 64.9 µM, the GI50 (BT-549) was 2.15 µM and the IC (TGI) (BT-549) was 9.28 µM. The activity at 10 µM (BT-549) was 15.7%, the CC50 (BT-549) was greater than 100 µM and the GI50 (T-47D) was 1.03 µM. The IC (TGI) (T-47D) was 5.35 µM, the activity at 10 µM (T-47D) was -6.32% and the CC50 (T-47D) was 79.3 µM. For the same compound, the inhibition at 10 µM (VEGFR-2 tyrosine kinase) was 20%.

In the case of O=C(Nc1ccc(Cl)cc1)Nc1ccc(Oc2nncc3ccccc23)cc1 [Compound 7b, 1–(4-Chlorophenyl)-3–(4-(phthalazin-1-yloxy)phenyl)urea], the GI50 (HL-60(TB)) is reported as 1.08 µM, the IC (TGI) (HL-60(TB)) is reported as 13.4 µM and the CC50 (HL-60(TB)) is reported as greater than 100 µM. It also gave an activity at 10 µM (HL-60(TB)) of 3.65%, a GI50 (K-562) of 0.37 µM and an IC (TGI) (K-562) greater than 100 µM. The CC50 (K-562) was greater than 100 µM, the activity at 10 µM (K-562) was 5.58% and the GI50 (MOLT-4) was 0.37 µM. It also gave an IC (TGI) (MOLT-4) greater than 100 µM, a CC50 (MOLT-4) greater than 100 µM and an activity at 10 µM (MOLT-4) of 3.99%. It also gave a GI50 (NCI-H522) of 0.19 µM, an IC (TGI) (NCI-H522) of 0.41 µM and a CC50 (NCI-H522) of 0.91 µM. The activity at 10 µM (NCI-H522) was -46.4%, the GI50 (HT29) was 0.46 µM and the IC (TGI) (HT29) was 2.39 µM. For the same compound, the CC50 (HT29) was greater than 100 µM, the activity at 10 µM (HT29) was 0.52% and the GI50 (MDA-MB-435) was 0.29 µM. The IC (TGI) (MDA-MB-435) was 1.07 µM, the activity at 10 µM (MDA-MB-435) was -33.3% and the CC50 (MDA-MB-435) was 5.65 µM. For the same compound, the GI50 (UACC-257) was 0.15 µM, the IC (TGI) (UACC-257) was 4.04 µM and the activity at 10 µM (UACC-257) was 34.4%. It also gave a CC50 (UACC-257) of 12.9 µM, a GI50 (IGROV1) of 1.16 µM and an IC (TGI) (IGROV1) of 5 µM. The CC50 (IGROV1) was greater than 100 µM, the activity at 10 µM (IGROV1) was 8.16% and the GI50 (OVCAR-3) was 0.35 µM. It also gave an IC (TGI) (OVCAR-3) of 1.15 µM, a CC50 (OVCAR-3) of 3.95 µM and an activity at 10 µM (OVCAR-3) of -62.8%. The TGI (CAKI-1) was 8.70 µM, the GI50 (CAKI-1) was 2.72 µM and the CC50 (CAKI-1) was 43.9 µM. For the same compound, the activity at 10 µM (CAKI-1) was 18.7%, the GI50 (DU-145) was 0.73 µM and the IC (TGI) (DU-145) was 2.08 µM. It also gave a CC50 (DU-145) of 4.88 µM, an activity at 10 µM (DU-145) of 11.2% and an IC (TGI) (MCF7) of 1.89 µM. The activity at 10 µM (MCF7) was 14.3%, the GI50 (MCF7; MCF7, 5 log dose, read-out: GI50) was 0.32 µM and the GI50 (MDA-MB 231/ATCC) was 0.39 µM. It also gave an IC (TGI) (MDA-MB 231/ATCC) of 3.68 µM, an activity at 10 µM (MDA-MB 231/ATCC) of -25.2% and a CC50 (MDA-MB 231/ATCC) of 42.4 µM. It also gave a GI50 (BT-549) of 2.08 µM, an IC (TGI) (BT-549) of 7.43 µM and an activity at 10 µM (BT-549) of -10.3%. The CC50 (BT-549) was 58.1 µM, the GI50 (T-47D) was 0.24 µM and the IC (TGI) (T-47D) was 7.68 µM. For the same compound, the activity at 10 µM (T-47D) was 10.2%, the CC50 (T-47D) was greater than 100 µM and the inhibition at 10 µM (VEGFR-2 tyrosine kinase) was 13%.
